{"source": "paper PMC9474474", "about": "“Determination of pharmacokinetics and tissue distribution of a novel lutetium-labeled PSMA-targeted ligand, ^177Lu-DOTA-PSMA-GUL, in rats by using LC–MS/MS” (Scientific Reports, 2022)", "key": {"[1]": {"test": "Excretion into urine and feces for 24 h after i.v. injection in rats", "assay_type": "in vivo, Male Sprague–Dawley rats", "description": "(§1) Freshly prepared ^175Lu-DOTA-PSMA-GUL solution (2.1 mg/mL) was administered by i.v. bolus injection via the penile vein (n = 5–7) at three doses of 1, 2, and 5 mg/kg. Approximately 0.3 mL of the jugular venous blood samples were collected at predetermined times after i.v. injection. Plasma samples were harvested by centrifugation of the blood samples at 3220 × g for 10 min. Urine and feces samples were collected at 4, 8, 12, and 24 h after i.v. injection. All samples were stored at -70 °C until analysis.\n(§2) The plasma concentration–time data were analyzed by non-compartmental method using Phoenix® WinNonlin® (Pharsight, NC, USA). The fraction of ^175Lu-DOTA-PSMA-GUL excreted into urine (Furine) and feces (Ffeces) were calculated by the ratio of the total amount of drug excreted in the urine and feces to the fraction of the dose, respectively. The tissue-to-plasma partition coefficients (KP) were calculated as the tissue-to-plasma concentration ratios."}, "[2]": {"test": "Pharmacokinetics after i.v. bolus injection in rats (non-compartmental analysis, dose proportionality)", "assay_type": "in vivo, Male Sprague–Dawley rats", "description": "as §1, §2\nDose proportionality was tested for Cmax, AUCall, and AUCinf based on power model. Assuming the natural logarithm of the pharmacokinetic parameter is linearly related to the natural logarithm of dose as in the following equation: ln(PK parameter) = β0 + β1 × ln(dose), the slope coefficient (β1) and its two-sided 95% confidence intervals (CI) were estimated."}, "[3]": {"conditions": "i.v. injection, average over doses"}}, "data": [{"smiles": "O=C([O-])CN1CCN(CC(=O)[O-])CCN(CC(=O)[O-])C(Cc2ccc(NC(=S)NCCCC[C@H](NC(=O)N[C@@H](CCC(=O)O)C(=O)O)C(=O)O)cc2)CN(CC(=O)[O-])CC1.[Lu+3]", "note": "(stereo partly shown) [^175Lu-DOTA-PSMA-GUL, Lutetium labeled-1,4,7,10-tetraazacyclododecane-1,4,7,10-tetraacetic acid (DOTA)-PSMA-GUL]", "values": [{"measurement": "Ffeces (fraction excreted into feces)", "setting": "[1]; i.v. injection 1 mg/kg", "result": "5.46 ± 4.11", "unit": "%"}, {"measurement": "Furine (fraction excreted into urine)", "setting": "[1]; i.v. injection 1 mg/kg", "result": "58.71 ± 21.26", "unit": "%"}, {"measurement": "Ffeces (fraction excreted into feces)", "setting": "[1]; i.v. injection 2 mg/kg", "result": "1.08 ± 0.76", "unit": "%"}, {"measurement": "Furine (fraction excreted into urine)", "setting": "[1]; i.v. injection 2 mg/kg", "result": "54.59 ± 25.98", "unit": "%"}, {"measurement": "Ffeces (fraction excreted into feces)", "setting": "[1]; i.v. injection 5 mg/kg", "result": "6.41 ± 3.68", "unit": "%"}, {"measurement": "Furine (fraction excreted into urine)", "setting": "[1]; i.v. injection 5 mg/kg", "result": "59.89 ± 22.82", "unit": "%"}, {"measurement": "detection in the plasma", "setting": "[2]; after 4 h of i.v. injection", "result": "not detected"}, {"measurement": "clearance (CL)", "setting": "[2]; from the i.v. injection study", "result": 10.126, "unit": "mL/min/kg"}, {"measurement": "AUCall", "setting": "[2]; i.v. injection 1 mg/kg", "result": "1841.19 ± 266.36", "unit": "ng·h/mL"}, {"measurement": "AUCinf", "setting": "[2]; i.v. injection 1 mg/kg", "result": "1857.48 ± 270.08", "unit": "ng·h/mL"}, {"measurement": "C0", "setting": "[2]; i.v. injection 1 mg/kg", "result": "9267.42 ± 2673.59", "unit": "ng/mL"}, {"measurement": "CL", "setting": "[2]; i.v. injection 1 mg/kg", "result": "9.13 ± 1.30", "unit": "mL/min/kg"}, {"measurement": "MRT", "setting": "[2]; i.v. injection 1 mg/kg", "result": "20.4 ± 1.2", "unit": "min"}, {"measurement": "VSS", "setting": "[2]; i.v. injection 1 mg/kg", "result": "0.19 ± 0.03", "unit": "L/kg"}, {"measurement": "Vz", "setting": "[2]; i.v. injection 1 mg/kg", "result": "0.25 ± 0.03", "unit": "L/kg"}, {"measurement": "t1/2", "setting": "[2]; i.v. injection 1 mg/kg", "result": "19.2 ± 1.2", "unit": "min"}, {"measurement": "AUCall", "setting": "[2]; i.v. injection 2 mg/kg", "result": "3029.00 ± 350.80", "unit": "ng·h/mL"}, {"measurement": "AUCinf", "setting": "[2]; i.v. injection 2 mg/kg", "result": "3047.45 ± 346.00", "unit": "ng·h/mL"}, {"measurement": "C0", "setting": "[2]; i.v. injection 2 mg/kg", "result": "14,960.22 ± 3104.40 ng/mL"}, {"measurement": "CL", "setting": "[2]; i.v. injection 2 mg/kg", "result": "11.04 ± 1.15", "unit": "mL/min/kg"}, {"measurement": "MRT", "setting": "[2]; i.v. injection 2 mg/kg", "result": "19.2 ± 1.8", "unit": "min"}, {"measurement": "VSS", "setting": "[2]; i.v. injection 2 mg/kg", "result": "0.21 ± 0.04", "unit": "L/kg"}, {"measurement": "Vz", "setting": "[2]; i.v. injection 2 mg/kg", "result": "0.29 ± 0.05", "unit": "L/kg"}, {"measurement": "t1/2", "setting": "[2]; i.v. injection 2 mg/kg", "result": "18 ± 1.8", "unit": "min"}, {"measurement": "AUCall", "setting": "[2]; i.v. injection 5 mg/kg", "result": "8038.10 ± 1055.28", "unit": "ng·h/mL"}, {"measurement": "AUCinf", "setting": "[2]; i.v. injection 5 mg/kg", "result": "8076.44 ± 1063.99", "unit": "ng·h/mL"}, {"measurement": "C0", "setting": "[2]; i.v. injection 5 mg/kg", "result": "46,720.92 ± 13,829.91 ng/mL"}, {"measurement": "CL", "setting": "[2]; i.v. injection 5 mg/kg", "result": "10.46 ± 1.30", "unit": "mL/min/kg"}, {"measurement": "MRT", "setting": "[2]; i.v. injection 5 mg/kg", "result": "19.2 ± 1.2", "unit": "min"}, {"measurement": "VSS", "setting": "[2]; i.v. injection 5 mg/kg", "result": "0.20 ± 0.03", "unit": "L/kg"}, {"measurement": "Vz", "setting": "[2]; i.v. injection 5 mg/kg", "result": "0.30 ± 0.09", "unit": "L/kg"}, {"measurement": "t1/2", "setting": "[2]; i.v. injection 5 mg/kg", "result": "19.8 ± 5.4", "unit": "min"}, {"measurement": "average CL", "setting": "[2]; [3]", "result": 10.13, "unit": "mL/min/kg"}, {"measurement": "average volume of distribution (Vss)", "setting": "[2]; [3]", "result": 0.20, "unit": "L/kg"}]}]}
